Experimental data published in paper PMC12078333, “Pharmacokinetic evaluation and bioavailability of KPT-335 (Verdinexor) in cats” (Frontiers in Veterinary Science, 2025).
“And” between values parts separate entries of the source, which are not always exact repeats. Equal values may be shown once. Read-outs that look alike come from different tables or passages of the source.

Assay: Pharmacokinetics study of KPT-335 in cats (i.v. injection, p.o. capsules and tablets; UPLC-MS/MS, non-compartmental analysis)
Assay type: in vivo
Conditions: cats; for bioavailability / k el / Tmax / MRT last / AUC(0-inf) / AUC(0-t) / Cmax: both sexes, plasma, po; for k el: read-out: Lambda_z (converted); for Tmax: read-out: Tmax; for AUC(0-inf): read-out: AUCINF_obs; for AUC(0-t): read-out: AUClast; for Cmax: read-out: Cmax; for Plasma concentration: individual cats 1-6
Method: In this study, a parallel trial design was employed, 42 adult domestic cats (21 males and 21 females), aged 1 to 2 years and weighing 2.5 ± 0.25 kg. Cats were grouped by random number, with half male and female in each group, and all cats were determined to be systemically healthy during an initial screening visit 1 week prior to the experiment. They were acclimatized to the laboratory environment for 7 days before the study commenced. During this period, they were kept in solitary cages with free access to water. Cats in the fasting group were deprived of food for 12 h prior to and 2 h following drug administration, while those in the feeding group were fed twice a day. Food and water sources were consistent throughout the trail. During and at the end of the experiment, we systematically assessed the adverse reactions by recording parameters such as body weight, behavior, and coat gloss in all test cats both before and after the trial. These observations were conducted to evaluate whether any adverse reactions occurred. All procedures were reviewed and approved by the Institutional Animal Care and Use Committee of China Agricultural University (11305-23-E-002).
The UPLC-MS/MS system utilized a UPLC 1290 (Agilent) paired with a Phenomenex Kinetex C18 column (50 mm × 2.1 mm, 2.6 μm) for separation at a flow rate of 0.3 mL/min. The chromatographic mobile phase comprised water (A) and acetonitrile (B), both containing 0.1% formic acid. The gradient elution program was as follows: from 0.5 to 2.5 min, 10 to 95% B; from 2.5 to 4.5 min, 95% B; from 4.5 to 4.6 min, 95 to 10% B; and from 4.6 to 6.0 min, 10% B. The injection volume was 2 μL.
For mass spectrometry, an Agilent 6,475-LC-TQ equipped with an electrospray ion source was used. Multiple Reaction Monitoring (MRM) was selected to quantify KPT-335 in the positive ion mode. The ion transitions monitored were m/z 443.1 → 334.0 and 443.1 → 110.1 for KPT-335, and m/z 444.1 → 334.0 for the internal standard (IS). The cone voltage and collision energy were optimized for KPT-335 and the IS individually, set at 160 V and 25 eV, respectively. The optimized parameters for the instrument included an ion source temperature of 350°C, solvent removal temperature of 320°C, capillary voltage of 3.0 kV, and a solvent gas flow rate of 300 L/h.
The method was developed based on prior research conducted in the laboratory ([16]) and validated in accordance with international guidelines ([17]). The calibration concentration range for KPT-335 spanned from 0.5 to 100 ng/mL, with a lower limit of quantification (LLOQ) set at 0.5 ng/mL. The squared correlation coefficient (R^2) values exceeded 0.999, indicating high linearity.
For sample preparation, 100 μL of plasma was mixed with 10 μL of internal standard (IS) and 900 μL of acetonitrile, followed by vortexing for 2 min. The mixture was then centrifuged at 13,400 × g at 4°C for 10 min. The supernatant was filtered through a 0.22 μm organic membrane, and the resulting sample was analyzed using UPLC-MS/MS.
Cats were divided into seven groups, with six cats in each group. In the intravenous (i.v.) group (Group 1), cats received an injection of KPT-335 at a dosage of 1 mg/kg body weight (BW), administered via a bolus through a venous infusion needle. For the oral (p.o.) administration, cats were given capsules in a fasting state at doses of 0.2 mg/kg BW (Group 2), 1 mg/kg BW (Group 3), and 2 mg/kg BW (Group 4). Additionally, tablets were administered at 1 mg/kg BW (fasting, Group 5), 1 mg/kg BW (Group 6), and 2 mg/kg BW (Group 7) in a feeding state, followed by 3 mL of water delivered with a syringe.
For the p.o. administration, blood samples of 1.5 mL were collected via the brachial cephalic vein prior to administration and at 0.167, 0.333, 0.5, 0.75, 1, 1.5, 2, 4, 6, 8, 12, 24, 32, and 48 h post-administration. […]

[1] = 0.2 mg/kg, p.o., Capsule, Fasting, 0.2 mg/kg BW
[2] = 1 mg/kg, p.o., Capsule, Fasting, 1 mg/kg BW
[3] = 1 mg/kg, p.o., Tablet, Fasting, 1 mg/kg BW
[4] = 1 mg/kg, p.o., Tablet, Feeding, 1 mg/kg BW
[5] = 2 mg/kg, p.o., Capsule, Fasting, 2 mg/kg BW
[6] = 2 mg/kg, p.o., Tablet, Feeding, 2 mg/kg BW
[7] = capsule group, 0.2–2 mg/kg BW, reference 95% CI 0.90–1.10

Compound `O=C(/C=C\n1cnc(-c2cc(C(F)(F)F)cc(C(F)(F)F)c2)n1)NNc1ccccn1` [KPT-335] has a bioavailability (0.2 mg/kg, p.o., Capsule, Fasting, 0.2 mg/kg BW, read-out: F (absolute bioavailability)) of 43.7%, a k el [1] of 3.33e-05 s⁻¹ and a Tmax [1] of 2.46 ± 2.75 h. The MRT last (1 mg/kg, Capsule, Fasting, 1 mg/kg BW) was 5.94 ± 1.05 h, the MRT last (1 mg/kg, Tablet, Fasting, 1 mg/kg BW) was 8.07 ± 1.73 h and the MRT last (1 mg/kg, Tablet, Feeding, 1 mg/kg BW) was 5.8 ± 1.61 h. It also gave a bioavailability (1 mg/kg, doses of 1 mg/kg BW, read-out: bioavailability of commercial tablets) of ~70%, an AUC(0-inf) [2] of 1420 ± 490 ng·h/mL and an AUC(0-t) [2] of 1420 ± 489 ng·h/mL. It also gave a Cmax [2] of 260 ± 75 ng/mL, a bioavailability (1 mg/kg, p.o., Capsule, Fasting, 1 mg/kg BW, read-out: F (absolute bioavailability)) of 44.7% and a k el [2] of 3.61e-05 s⁻¹. For the same compound, the Tmax [2] was 1.25 ± 0.39 h, the AUC(0-inf) [3] was 2430 ± 805 ng·h/mL and the AUC(0-t) [3] was 2410 ± 793 ng·h/mL. It also gave a Cmax [3] of 264 ± 129 ng/mL, a bioavailability (1 mg/kg, p.o., Tablet, Fasting, 1 mg/kg BW, read-out: F (absolute bioavailability)) of 75.9% and a k el [3] of 3.61e-05 s⁻¹. For the same compound, the Tmax [3] was 1.79 ± 1.17 h, the AUC(0-inf) [4] was 2270 ± 1260 ng·h/mL and the AUC(0-t) [4] was 2250 ± 1260 ng·h/mL. For the same compound, the Cmax [4] was 364 ± 145 ng/mL, the bioavailability (1 mg/kg, p.o., Tablet, Feeding, 1 mg/kg BW, read-out: F (absolute bioavailability)) was 71% and the k el [4] was 5e-05 s⁻¹. For the same compound, the Tmax [4] was 1.33 ± 0.41 h, the MRT last (2 mg/kg, Capsule, Fasting, 2 mg/kg BW) was 7.57 ± 1.94 h and the MRT last (2 mg/kg, Tablet, Feeding, 2 mg/kg BW) was 5.07 ± 0.69 h. It also gave an AUC(0-inf) [5] of 1850 ± 819 ng·h/mL, an AUC(0-t) [5] of 1840 ± 819 ng·h/mL and a Cmax [5] of 280 ± 175 ng/mL. For the same compound, the bioavailability (2 mg/kg, p.o., Capsule, Fasting, 2 mg/kg BW, read-out: F (absolute bioavailability)) was 28.9%, the k el [5] was 2.78e-05 s⁻¹ and the Tmax [5] was 1.58 ± 0.38 h. For the same compound, the AUC(0-inf) [6] was 3010 ± 715 ng·h/mL, the AUC(0-t) [6] was 3000 ± 711 ng·h/mL and the Cmax [6] was 559 ± 104 ng/mL. For the same compound, the bioavailability (2 mg/kg, p.o., Tablet, Feeding, 2 mg/kg BW, read-out: F (absolute bioavailability)) was 47.3%, the k el [6] was 5.83e-05 s⁻¹ and the Tmax [6] was 1.58 ± 0.2 h. For the same compound, the bioavailability (doses of 0.2–1 mg/kg BW, read-out: absolute bioavailability of capsules) was ~40%, the “dose linearity of pharmacokinetics” value (0.2–2 mg/kg BW dosage range) was “not to exhibit linear pharmacokinetics” and the “differences in pharmacokinetic parameters (Cmax and AUClast) between male and female cats” value (all groups) was “no statistically significant differences”. The “95% confidence interval of β, dose vs AUClast” value [7] was 0.63–1.11, the “95% confidence interval of β, dose vs Cmax” value [7] was 0.79–1.30 and the Plasma concentration (capsule p.o. 0.2 mg/kg BW, 1.5 h, 0.2 mg/kg, in ng/mL) was 15.20 and 20.46 and 38.22 and 14.31 and 22.72 and 26.72. For the same compound, the Plasma concentration (capsule p.o. 0.2 mg/kg BW, 2 h, 0.2 mg/kg, in ng/mL) was 13.60 and 18.16 and 33.66 and 26.22 and 20.79 and 22.21, the Plasma concentration (capsule p.o. 0.2 mg/kg BW, 4 h, 0.2 mg/kg) was 8.71 ng/mL and the Plasma concentration (capsule p.o. 0.2 mg/kg BW, 4 h, 0.2 mg/kg, in ng/mL) was 14.86 and 24.97 and 21.41 and 17.43 and 19.90. The Plasma concentration (capsule p.o. 0.2 mg/kg BW, 6 h, 0.2 mg/kg) was 6.19 ng/mL, the Plasma concentration (capsule p.o. 0.2 mg/kg BW, 6 h, 0.2 mg/kg, in ng/mL) was 20.30 and 16.23 and 18.02 and 15.34 and the Plasma concentration (capsule p.o. 0.2 mg/kg BW, 32 h, 0.2 mg/kg) was “BLOQ”. The Plasma concentration (capsule p.o. 0.2 mg/kg BW, 48 h) was “BLOQ”, the Plasma concentration (capsule p.o. 1 mg/kg BW, 48 h, 1 mg/kg) was “BLOQ” and the Plasma concentration (i.v. 1 mg/kg BW, 0.083 h, 1 mg/kg, in ng/mL) was 1162.77 and 332.48 and 914.52 and 894.65 and 827.83 and 934.74. For the same compound, the Plasma concentration (i.v. 1 mg/kg BW, 0.167 h, 1 mg/kg, in ng/mL) was 1202.33 and 331.12 and 812.32 and 891.11 and 808.43 and 825.26, the Plasma concentration (i.v. 1 mg/kg BW, 0.25 h, 1 mg/kg, in ng/mL) was 1058.99 and 320.82 and 769.91 and 863.19 and 750.36 and 838.90 and the Plasma concentration (i.v. 1 mg/kg BW, 0.33 h, 1 mg/kg, in ng/mL) was 996.69 and 292.96 and 774.12 and 852.52 and 723.28 and 760.14. The Plasma concentration (i.v. 1 mg/kg BW, 0.5 h, 1 mg/kg, in ng/mL) was 935.15 and 297.11 and 736.77 and 700.75 and 649.99 and 680.18 and the Plasma concentration (i.v. 1 mg/kg BW, 0.75 h, 1 mg/kg, in ng/mL) was 709.09 and 236.62 and 633.10 and 524.38 and 509.94 and 541.50.
